Test results published in ChEMBL document CHEMBL5096163, “Current status in the discovery of dual BET/HDAC inhibitors” (Bioorg Med Chem Lett, 2021).

Tests used:
[1] = target: Histone deacetylase 3 (Homo sapiens, UniProt O15379); test: Inhibition of human recombinant HDAC3 using Boc-Lys(Ac)-AMC fluorogenic substrate measured after 60 mins by fluorescence assay
[2] = target: Histone deacetylase 1 (Homo sapiens) (UniProt Q13547); test: Inhibition of HDAC1 (unknown origin) at 10 uM relative to control
Chain of Histone deacetylase 1 (Homo sapiens) (Q13547 whole entry): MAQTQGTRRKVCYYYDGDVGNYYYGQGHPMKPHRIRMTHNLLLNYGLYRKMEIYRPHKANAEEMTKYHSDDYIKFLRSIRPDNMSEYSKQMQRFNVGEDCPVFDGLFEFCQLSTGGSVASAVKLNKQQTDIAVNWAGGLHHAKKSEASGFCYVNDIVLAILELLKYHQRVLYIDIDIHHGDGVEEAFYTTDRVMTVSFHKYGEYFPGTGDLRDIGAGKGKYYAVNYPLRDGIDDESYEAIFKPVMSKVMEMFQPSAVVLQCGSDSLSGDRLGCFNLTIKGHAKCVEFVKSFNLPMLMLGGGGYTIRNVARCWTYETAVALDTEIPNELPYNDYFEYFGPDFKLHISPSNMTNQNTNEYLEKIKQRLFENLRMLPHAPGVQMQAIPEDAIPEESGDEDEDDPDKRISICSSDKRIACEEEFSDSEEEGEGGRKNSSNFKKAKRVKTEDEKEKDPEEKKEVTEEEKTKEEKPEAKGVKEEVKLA

[3] = system: U-937; test: Cytotoxicity against human U-937 cells assessed as reduction in cell viability at 3 uM incubated for 24 hrs by MTT assay relative to control; type: functional

Chain of Histone deacetylase 3 (O15379 whole entry): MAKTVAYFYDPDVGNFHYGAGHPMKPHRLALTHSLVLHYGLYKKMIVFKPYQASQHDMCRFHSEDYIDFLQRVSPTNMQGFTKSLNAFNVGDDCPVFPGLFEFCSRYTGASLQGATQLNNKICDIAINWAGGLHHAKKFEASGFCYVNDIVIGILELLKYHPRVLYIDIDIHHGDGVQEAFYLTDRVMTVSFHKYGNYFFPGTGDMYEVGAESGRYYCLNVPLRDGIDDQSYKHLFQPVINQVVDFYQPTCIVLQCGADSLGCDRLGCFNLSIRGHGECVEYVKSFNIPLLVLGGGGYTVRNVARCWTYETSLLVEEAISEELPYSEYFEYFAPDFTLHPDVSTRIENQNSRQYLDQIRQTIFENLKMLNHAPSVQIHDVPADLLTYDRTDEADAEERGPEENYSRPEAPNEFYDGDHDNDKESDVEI

| IC50 [1] [nM] | inhibition [2] [%] | Compound | Activity [3] [%] |
| --- | --- | --- | --- |
| 60 | – | O=C(CCCCCCn1cc(Cc2ccccc2)c2cccnc21)NO | – |
| 5 | – | COC(c1c(F)cccc1Cl)c1c[nH]c2ncc(-c3c(C)noc3C)cc12 (stereo not given) | – |
| 5 | 88 | Cc1noc(C)c1-c1cnc2c(c1)c(Cc1ccc(F)cc1)cn2CCCCCCC(=O)NO | – |
| – | – | Cc1sc2c(c1C)C(c1ccc(Cl)cc1)=N[C@@H](CC(=O)NCCCC(=O)Nc1ccccc1N)c1nnc(C)n1-2 | 16.12 |
